Holding throughout (conditions): stereoisomer not certain
Data set [1] in a line: RP, Waters ACQUITY UPLC BEH C18, 100 × 2.1 mm, 1.7 µm, 0.1 mL/min, estimated dead time 2.2 min; A: water + 0.1% formic acid, pH 3; B: methanol + 0.1% formic acid, pH 3; gradient (min/%B) 0/5 5/5 25/95 25.1/100 35/100 35.1/5 45/5.
The nature of data set [2]: RP, Waters CORTECS T3, 100 × 2.1 mm, 2.7 µm, 0.3 mL/min, estimated dead time 0.73 min; A: water + 0.1% formic acid, pH 3; B: methanol + 0.1% formic acid, pH 3; gradient (min/%B) 0/0 5/0 25/100 30/100 30.1/0 35/0.
A short description of data set [3]: RP, Waters CORTECS T3, 100 × 2.1 mm, 2.7 µm, 0.3 mL/min, estimated dead time 0.73 min; A: water + 0.1% formic acid, pH 3; B: methanol + 0.1% formic acid, pH 3; gradient (min/%B) 0/0 1/0 6/5 30/100 35/100 35.1/0 40/0.
Data set [4] in a line: RP, Waters CORTECS T3, 100 × 2.1 mm, 2.7 µm, 0.2 mL/min, estimated dead time 1.1 min; A: water + 0.1% formic acid, pH 3; B: methanol + 0.1% formic acid, pH 3; gradient (min/%B) 0/0 1/0 6/5 30/100 35/100 35.1/0 40/0.
A short description of data set [5]: RP, Waters CORTECS T3, 100 × 2.1 mm, 2.7 µm, 0.15 mL/min, estimated dead time 1.5 min; A: water + 0.1% formic acid, pH 3; B: methanol + 0.1% formic acid, pH 3; gradient (min/%B) 0/0 1/0 6/5 30/100 35/100 35.1/0 40/0.
Data set [6] in a line: RP, Waters CORTECS T3, 100 × 2.1 mm, 2.7 µm, 0.1 mL/min, estimated dead time 2.2 min; A: water + 0.1% formic acid, pH 3; B: methanol + 0.1% formic acid, pH 3; gradient (min/%B) 0/0 1/0 6/5 30/100 35/100 35.1/0 40/0.
A short description of data set [7]: RP, Waters ACQUITY UPLC BEH C18, 100 × 2.1 mm, 1.7 µm, 0.1 mL/min, estimated dead time 2.2 min; A: water + 0.1% formic acid, pH 3; B: methanol + 0.1% formic acid, pH 3; gradient (min/%B) 0/5 5/5 25/100 30/100 30.1/5 35/5.
Data set [8] can be described thus: RP, Waters CORTECS T3, 100 × 2.1 mm, 2.7 µm, 0.3 mL/min, estimated dead time 0.73 min; A: water + 0.1% formic acid, pH 3; B: methanol + 0.1% formic acid, pH 3; gradient (min/%B) 0/5 5/5 25/95 25.1/100 35/100 35.1/5 45/5.
Data set [9] can be described thus: RP, Waters CORTECS T3, 100 × 2.1 mm, 2.7 µm, 0.3 mL/min, estimated dead time 0.73 min; A: water + 0.1% formic acid, pH 3; B: methanol + 0.1% formic acid, pH 3; gradient (min/%B) 0/5 5/5 25/100 30/100 30.1/5 35/5.
Data set [10] is described as follows: RP, Waters CORTECS T3, 100 × 2.1 mm, 2.7 µm, 0.25 mL/min, estimated dead time 0.88 min; A: water + 0.1% formic acid, pH 3; B: methanol + 0.1% formic acid, pH 3; gradient (min/%B) 0/0 1/0 6/5 30/100 35/100 35.1/0 40/0.
Data set [11] in a line: RP, Waters ACQUITY UPLC BEH C18, 100 × 2.1 mm, 1.7 µm, 0.1 mL/min, estimated dead time 2.2 min; A: water + 0.045% formic acid + 0.11% ammonium hydroxide, pH 7; B: methanol; gradient (min/%B) 0/5 5/5 25/95 25.1/100 35/100 35.1/5 45/5.
Data set [12] can be described thus: RP, Waters CORTECS T3, 100 × 2.1 mm, 2.7 µm, 0.2 mL/min, estimated dead time 1.1 min; A: water + 0.045% formic acid + 0.11% ammonium hydroxide, pH 7; B: methanol; gradient (min/%B) 0/5 5/5 25/95 25.1/100 35/100 35.1/5 45/5.
Data set [13] is described as follows: RP, Waters ACQUITY UPLC BEH C18, 100 × 2.1 mm, 1.7 µm, 0.2 mL/min, estimated dead time 1.1 min; A: water + 0.025% formic acid + 20 mM ammonium acetate + 0.055% ammonium hydroxide, pH 7; B: methanol; gradient (min/%B) 0/5 5/5 25/100 30/100 30.1/5 35/5.
The nature of data set [14]: RP, Waters CORTECS T3, 100 × 2.1 mm, 2.7 µm, 0.1 mL/min, estimated dead time 2.2 min; A: water + 0.1% formic acid, pH 3; B: methanol + 0.1% formic acid, pH 3; gradient (min/%B) 0/5 5/5 25/95 25.1/100 35/100 35.1/5 45/5.
Data set [15] in a line: RP, Thermo Scientific Hypercarb, 150 × 2.1 mm, 5 µm, 0.1 mL/min, estimated dead time 3.3 min; A: water + 0.1% formic acid, pH 3; B: methanol + 0.1% formic acid, pH 3; gradient (min/%B) 0/5 5/5 20/100 35/100 35.1/5 45/5.
The nature of data set [16]: RP, Waters CORTECS T3, 100 × 2.1 mm, 2.7 µm, 0.25 mL/min, estimated dead time 0.88 min; A: water + 0.1% formic acid, pH 3; B: methanol + 0.1% formic acid, pH 3; gradient (min/%B) 0/5 5/5 25/95 25.1/100 35/100 35.1/5 45/5.
Data set [17] is described as follows: RP, Waters CORTECS T3, 100 × 2.1 mm, 2.7 µm, 0.3 mL/min, estimated dead time 0.73 min; A: water + 0.1% formic acid, pH 3; B: methanol + 0.1% formic acid, pH 3; gradient (min/%B) 0/0 1/0 6/5 30/100 35/100 35.1/0 40/0. This is another data set of the same source.
The nature of data set [18]: RP, Waters CORTECS T3, 100 × 2.1 mm, 2.7 µm, 0.2 mL/min, estimated dead time 1.1 min; A: water + 0.1% formic acid, pH 3; B: methanol + 0.1% formic acid, pH 3; gradient (min/%B) 0/5 5/5 25/95 25.1/100 35/100 35.1/5 45/5.
Data set [19] is described as follows: RP, Waters ACQUITY UPLC BEH C18, 100 × 2.1 mm, 1.7 µm, 0.2 mL/min, estimated dead time 1.1 min; A: water + 0.025% formic acid + 20 mM ammonium acetate + 0.055% ammonium hydroxide, pH 7; B: methanol; gradient (min/%B) 0/5 5/5 25/100 30/100 30.1/5 35/5. This is another data set of the same source.
The nature of data set [20]: RP, Waters ACQUITY UPLC BEH C18, 100 × 2.1 mm, 1.7 µm, 0.1 mL/min, estimated dead time 2.2 min; A: water + 0.1% formic acid, pH 3; B: methanol + 0.1% formic acid, pH 3; gradient (min/%B) 0/5 5/5 25/95 25.1/100 35/100 35.1/5 45/5. The source holds these as a separate data set.
Data set [21] is described as follows: RP, Waters ACQUITY UPLC BEH C18, 100 × 2.1 mm, 1.7 µm, 0.2 mL/min, estimated dead time 1.1 min; A: water + 0.1% formic acid, pH 3; B: methanol + 0.1% formic acid, pH 3; gradient (min/%B) 0/5 5/5 25/100 30/100 30.1/5 35/5.
Data set [22] in a line: RP, Waters CORTECS T3, 100 × 2.1 mm, 2.7 µm, 0.3 mL/min, estimated dead time 0.73 min; A: water + 0.1% formic acid, pH 3; B: methanol + 0.1% formic acid, pH 3; gradient (min/%B) 0/0 5/0 25/100 30/100 30.1/0 35/0. This is another data set of the same source.
Data set [23] is described as follows: RP, Waters CORTECS T3, 100 × 2.1 mm, 2.7 µm, 0.2 mL/min, estimated dead time 1.1 min; A: water + 0.1% formic acid, pH 3; B: methanol + 0.1% formic acid, pH 3; gradient (min/%B) 0/0 1/0 6/5 30/100 35/100 35.1/0 40/0. This is another data set of the same source.
The nature of data set [24]: HILIC, Merck SeQuant ZIC-HILIC, 150 × 2.1 mm, 5 µm, 0.75 mL/min, estimated dead time 0.44 min; A: water + 0.1% acetic acid + 10 mM ammonium acetate, pH 4; B: 5% water + 95% acetonitrile + 0.1% acetic acid + 10 mM ammonium acetate, pH 4; gradient (min/%B) 0/95 5/95 20/57 25/57 30/95 40/95.
The nature of data set [25]: RP, Waters ACQUITY UPLC BEH C18, 100 × 2.1 mm, 1.7 µm, 0.1 mL/min, estimated dead time 2.2 min; A: water + 0.1% formic acid, pH 3; B: methanol + 0.1% formic acid, pH 3; gradient (min/%B) 0/5 5/5 25/95 25.1/100 35/100 35.1/5 45/5. The source holds these as a separate data set.

Each structure is given as a SMILES string.

Turning to `NC(Cc1cc(I)c(Oc2cc(I)c(O)c(I)c2)c(I)c1)C(=O)O` (configuration not stated) [THYROXINE], the LC retention time in data set [1] was 23.5 min; in data set [2], 18.9 min; in data set [3], 21.6 min; in data set [4] it was 22.8 min; in data set [5], 23.9 min; in data set [6] it was 20.3 min. Besides, the LC retention time in [7] was 22.7 min; in [8] it was 19.1 min; in data set [9], 18.5 min; in data set [10] it was 22.1 min.

Turning to `C=Cc1c(C)c2cc3[nH]c(cc4nc(cc5nc(cc1[nH]2)C(C)=C5CCC(=O)O)C(CCC(=O)O)=C4C)c(C)c3C=C` [PROTOPORPHYRIN], the LC retention time was 29.5 min in data set [11]; 30.2 min in data set [1]; 25.3 min in [2]; 29.7 min in data set [3]; 25.9 min in [12]; 30.7 min in data set [4]. For the same compound, the LC retention time in data set [5] was 31.9 min; in data set [6], 26.5 min; in data set [13] it was 25.4 min; in [7], 29.5 min; in [14], 30.1 min; in [8] it was 26.1 min. Besides, the LC retention time in data set [9] is 25.1 min; in [10], 30.1 min.

As to `CN1CCC[C@H]1c1cccnc1` [(S)-NICOTINE], the LC retention time in data set [11] was 16.1 min; in [1] it was 2.66 min; in data set [2] it was 0.89 min; in data set [12] it was 11.7 min; in data set [4], 1.34 min; in data set [5], 1.78 min. In addition, the LC retention time in data set [13] was 11.2 min; in data set [7] it was 2.74 min; in data set [15], 4.86 min; in [10] it was 1.09 min.

In the case of `Nc1ncnc2c1ncn2C1CC(O)C(COP(=O)(O)O)O1` (configuration not stated) [DAMP], the LC retention time in [16] is 1.08 min; in data set [17] it was 0.92 min; in data set [18], 2.67 min; in data set [19] it was 1.36 min; in data set [20], 2.72 min; in data set [21], 1.38 min. For the same compound, the LC retention time is 0.92 min in [3]; 0.89 min in data set [22]; 1.34 min in data set [4]; 1.78 min in data set [5]; 1.35 min in data set [23]; 2.74 min in [7]. Further, the LC retention time in [8] was 0.9 min; in [24], 12.9 min; in data set [10], 1.09 min; in data set [25] it was 2.7 min.

For the compound `NCCc1c[nH]c2ccc(O)cc12` [SEROTONIN], the LC retention time in data set [11] is 13.9 min; in data set [1], 2.66 min; in [12] it was 10.7 min; in [7], 2.74 min; in data set [15], 14.4 min.

In the case of `O=C([O-])Cc1c[nH]c2ccccc12` [INDOLE-3-ACETATE], the LC retention time in data set [11] was 11.3 min; in data set [1], 18.6 min; in data set [2], 13.8 min; in data set [3], 14.8 min; in [4], 16.4 min; in data set [5], 17.9 min. Moreover, the LC retention time is 14.7 min in data set [6]; 18.2 min in data set [7]; 18.2 min in data set [14]; 13.1 min in data set [8]; 12.9 min in data set [9]; 15.5 min in data set [10].

Source of the values: the RepoRT retention time repository (doi:10.1016/j.jchromb.2020.122105).
